pEC50: −log10 of the molar value.
How the values were obtained:
Hepatitis C virus [1] = experiment: Antiviral activity against HCV genotype 1a H77 infected in mouse HB1 cells assessed as decrease in HCV replicon RNA replication after 3 days by taqman assay; type: functional, organism-based, Hepacivirus hominis; conditions: genotype 1a H77, HB1, 72 h
Hepatitis C virus [2] = experiment: Antiviral activity against HCV genotype 1b Con1 assessed as decrease in HCV replicon RNA replication by taqman assay based cell based replicon method; type: functional, organism-based, Hepacivirus hominis; conditions: isolate Con1
Hepatitis C virus [3] = experiment: Antiviral activity against HCV genotype 2a JFH assessed as decrease in HCV replicon RNA replication by taqman assay based cell based replicon method; type: functional, organism-based, Hepacivirus hominis; conditions: subtype 2a JFH
Hepatitis C virus [4] = experiment: Antiviral activity against HCV genotype 3a NC009824 assessed as decrease in HCV replicon RNA replication by taqman assay based cell based replicon method; type: functional, organism-based, Hepacivirus hominis
Hepatitis C virus [5] = experiment: Antiviral activity against HCV genotype 1a H77 expressing NS5A Y93H mutant infected in mouse HB1 cells assessed as decrease in HCV replicon RNA replication by taqman assay; type: functional, organism-based, Hepacivirus hominis; conditions: genotype 1a H77, HB1
Hepatitis C virus [6] = experiment: Antiviral activity against HCV genotype 1a assessed as decrease in HCV replicon RNA replication after 3 days in presence of 10% FBS by taqman assay based cell based replicon method; type: functional, organism-based, Hepacivirus hominis; conditions: subtype 1a, 72 h
Hepatitis C virus [7] = experiment: Antiviral activity against HCV genotype 1b assessed as decrease in HCV replicon RNA replication after 3 days in presence of 10% FBS by taqman assay based cell based replicon method; type: functional, organism-based, Hepacivirus hominis; conditions: 72 h
Hepatitis C virus [8] = experiment: Antiviral activity against HCV genotype 2a assessed as decrease in HCV replicon RNA replication after 3 days in presence of 10% FBS by taqman assay based cell based replicon method; type: functional, organism-based, Hepacivirus hominis; conditions: 72 h
Hepatitis C virus [9] = experiment: Antiviral activity against HCV genotype 1a assessed as decrease in HCV replicon RNA replication after 3 days by taqman assay based cell based replicon method; type: functional, organism-based, Hepacivirus hominis; conditions: subtype 1a, 72 h
Hepatitis C virus [10] = experiment: Antiviral activity against HCV genotype 1b assessed as decrease in HCV replicon RNA replication after 3 days by taqman assay based cell based replicon method; type: functional, organism-based, Hepacivirus hominis; conditions: 72 h
Hepatitis C virus [11] = experiment: Antiviral activity against HCV genotype 2a assessed as decrease in HCV replicon RNA replication after 3 days by taqman assay based cell based replicon method; type: functional, organism-based, Hepacivirus hominis; conditions: 72 h
Hepatitis C virus [12] = experiment: Antiviral activity against HCV genotype 3a assessed as decrease in HCV replicon RNA replication after 3 days by taqman assay based cell based replicon method; type: functional, organism-based, Hepacivirus hominis; conditions: 72 h
Hepatitis C virus [13] = experiment: Antiviral activity against HCV genotype 1a expressing NS5A Y93H mutant assessed as decrease in HCV replicon RNA replication after 3 days by taqman assay based cell based replicon method; type: functional, organism-based, Hepacivirus hominis; conditions: subtype 1a, 72 h
Hepatitis C virus [14] = experiment: Antiviral activity against HCV genotype 3a assessed as decrease in HCV replicon RNA replication after 3 days in presence of 10% FBS by taqman assay based cell based replicon method; type: functional, organism-based, Hepacivirus hominis; conditions: 72 h
Hepatitis C virus [15] = experiment: Antiviral activity against HCV genotype 1a expressing NS5A Y93H mutant assessed as decrease in HCV replicon RNA replication after 3 days in presence of 10% FBS by taqman assay based cell based replicon method; type: functional, organism-based, Hepacivirus hominis; conditions: subtype 1a, 72 h
[16] = Half life in Sprague-Dawley rat at 10 mg/kg, po or 2 mg/kg, iv; type: ADME, organism-based; conditions: in vivo
[17] = Clearance in Sprague-Dawley rat at 10 mg/kg, po or 2 mg/kg, iv; type: ADME, organism-based; conditions: in vivo
[18] = AUC in Sprague-Dawley rat at 10 mg/kg, po; type: ADME, organism-based; conditions: in vivo
[19] = Oral bioavailability in Sprague-Dawley rat at 10 mg/kg; type: ADME, organism-based; conditions: in vivo
[20] = Half life in Sprague-Dawley rat at 5 mg/kg, po or 2 mg/kg, iv; type: ADME, organism-based; conditions: in vivo
[21] = Clearance in Sprague-Dawley rat at 5 mg/kg, po or 2 mg/kg, iv; type: ADME, organism-based; conditions: in vivo
[22] = AUC in Sprague-Dawley rat at 5 mg/kg, po; type: ADME, organism-based; conditions: in vivo
[23] = Oral bioavailability in Sprague-Dawley rat at 5 mg/kg; type: ADME, organism-based; conditions: in vivo

Compound	pEC50 (Hepatitis C virus [9])	pEC50 (Hepatitis C virus [10])	pEC50 (Hepatitis C virus [11])	pEC50 (Hepatitis C virus [12])	pEC50 (Hepatitis C virus [13])	further results
COC(=O)N[C@H](C(=O)N1CCC[C@H]1c1nc(-c2ccc3c(c2)O[C@@H](c2ccccc2)n2c-3cc3cc(-c4c[nH]c([C@@H]5CCCN5C(=O)[C@@H](NC(=O)OC)C(C)C)n4)ccc32)c[nH]1)C(C)C [ELBASVIR]						pEC50 (Hepatitis C virus [1]): 11.40; pEC50 (Hepatitis C virus [2]): 11.52; pEC50 (Hepatitis C virus [3]): 11.52; pEC50 (Hepatitis C virus [4]): 10.70; pEC50 (Hepatitis C virus [5]): 8.70
COC(=O)N[C@H](C(=O)N1CCC[C@H]1c1ncc(-c2ccc3c(C#N)c4cc(-c5cnc([C@@H]6CCCN6C(=O)[C@@H](NC(=O)OC)C(C)C)[nH]5)ccc4nc3c2)[nH]1)C(C)C						pEC50 (Hepatitis C virus [6]): 9.52; pEC50 (Hepatitis C virus [7]): 11.00; pEC50 (Hepatitis C virus [8]): 9.00
COC(=O)N[C@H](C(=O)N1CCC[C@H]1c1ncc(-c2ccc3c(c2)Oc2ccc(-c4cnc([C@@H]5CCCN5C(=O)[C@@H](NC(=O)OC)C(C)C)[nH]4)cc2S3(=O)=O)[nH]1)C(C)C	< 9.00	10.22	9.10	7.80	5.62	
COC(=O)N[C@H](C(=O)N1CCC[C@H]1c1ncc(-c2ccc3c(=O)c4cc(-c5cnc([C@@H]6CCCN6C(=O)[C@@H](NC(=O)OC)C(C)C)[nH]5)ccc4oc3c2)[nH]1)C(C)C	11.00	11.70	10.00		5.76	
COC(=O)N[C@H](C(=O)N1CCC[C@H]1c1ncc(-c2ccc3c(C)c4cc(-c5cnc([C@@H]6CCCN6C(=O)[C@@H](NC(=O)OC)C(C)C)[nH]5)ccc4cc3c2)[nH]1)C(C)C	10.70	11.30	11.30	9.30	7.38	
COC(=O)N[C@H](C(=O)N1CCC[C@H]1c1ncc(-c2ccc3c(c2)Oc2ccc(-c4cnc([C@@H]5CCCN5C(=O)[C@@H](NC(=O)OC)C(C)C)[nH]4)cc2C3C2CC2)[nH]1)C(C)C (stereo partly drawn)						pEC50 (Hepatitis C virus [6]): 10.52; pEC50 (Hepatitis C virus [7]): 11.40; pEC50 (Hepatitis C virus [8]): 11.40; pEC50 (Hepatitis C virus [14]): 9.70; pEC50 (Hepatitis C virus [15]): 7.34
COC(=O)N[C@H](C(=O)N1CCC[C@H]1c1ncc(-c2ccc3c(c2)Oc2ccc(-c4cnc([C@@H]5CCCN5C(=O)[C@@H](NC(=O)OC)C(C)C)[nH]4)cc2N3C)[nH]1)C(C)C	10.05	11.15	10.15	9.52	7.15	half-life [16]: 1.2 h; clearance [17]: 32 mL/min/kg; AUC [18]: 2.8 µM·h; bioavailability [19]: 69%
COC(=O)N[C@H](C(=O)N1CCC[C@H]1c1ncc(-c2ccc3cc4cc(-c5cnc([C@@H]6CCCN6C(=O)[C@@H](NC(=O)OC)C(C)C)[nH]5)ccc4cc3c2)[nH]1)C(C)C	11.22	12.00	11.30	10.22	7.06	half-life [16]: 3 h; clearance [17]: 7.7 mL/min/kg; AUC [18]: 13 µM·h; bioavailability [19]: 46%
COC(=O)N[C@H](C(=O)N1CCC[C@H]1c1ncc(-c2ccc3nc4cc(-c5cnc([C@@H]6CCCN6C(=O)[C@@H](NC(=O)OC)C(C)C)[nH]5)ccc4cc3c2)[nH]1)C(C)C	10.30	11.00	10.40		5.98	
C/C=C1/c2ccc(-c3cnc([C@@H]4CCCN4C(=O)[C@@H](NC(=O)OC)C(C)C)[nH]3)cc2Oc2ccc(-c3cnc([C@@H]4CCCN4C(=O)[C@@H](NC(=O)OC)C(C)C)[nH]3)cc21	10.22	11.15	10.52	9.40	8.05	
COC(=O)N[C@H](C(=O)N1CCC[C@H]1c1ncc(-c2ccc3c(c2)C=Nc2cc(-c4cnc([C@@H]5CCCN5C(=O)[C@@H](NC(=O)OC)C(C)C)[nH]4)ccc2O3)[nH]1)C(C)C						pEC50 (Hepatitis C virus [6]): 7.40; pEC50 (Hepatitis C virus [7]): 9.30; pEC50 (Hepatitis C virus [8]): 7.26
CCCC/C=C1/c2ccc(-c3cnc([C@@H]4CCCN4C(=O)[C@@H](NC(=O)OC)C(C)C)[nH]3)cc2Oc2ccc(-c3cnc([C@@H]4CCCN4C(=O)[C@@H](NC(=O)OC)C(C)C)[nH]3)cc21	< 10.00	11.22	10.30	9.40	6.59	
COC(=O)N[C@H](C(=O)N1CCC[C@H]1c1ncc(-c2ccc3c(c2)NC(=O)c2cc(-c4cnc([C@@H]5CCCN5C(=O)[C@@H](NC(=O)OC)C(C)C)[nH]4)ccc2O3)[nH]1)C(C)C						pEC50 (Hepatitis C virus [6]): 6.02; pEC50 (Hepatitis C virus [7]): 7.40; pEC50 (Hepatitis C virus [8]): < 6.00
COC(=O)N[C@H](C(=O)N1CCC[C@H]1c1ncc(-c2ccc3c(c2)Oc2ccc(-c4cnc([C@@H]5CCCN5C(=O)[C@@H](NC(=O)OC)C(C)C)[nH]4)cc2N3c2ccccc2)[nH]1)C(C)C						pEC50 (Hepatitis C virus [6]): 8.30; pEC50 (Hepatitis C virus [7]): 11.10; pEC50 (Hepatitis C virus [8]): 8.52
COC(=O)N[C@H](C(=O)N1CCC[C@H]1c1ncc(-c2ccc3nc4cc(-c5cnc([C@@H]6CCCN6C(=O)[C@@H](NC(=O)OC)C(C)C)[nH]5)ccc4nc3c2)[nH]1)C(C)C	10.22	10.22	10.00	9.70	7.21	
COC(=O)N[C@H](C(=O)N1CCC[C@H]1c1ncc(-c2ccc3c(Cl)c4cc(-c5cnc([C@@H]6CCCN6C(=O)[C@@H](NC(=O)OC)C(C)C)[nH]5)ccc4cc3c2)[nH]1)C(C)C	10.30	11.52	11.00	9.22	7.18	
COC(=O)N[C@H](C(=O)N1CCC[C@H]1c1ncc(-c2ccc3c(c2)Oc2ccc(-c4cnc([C@@H]5CCCN5C(=O)[C@@H](NC(=O)OC)C(C)C)[nH]4)cc2O3)[nH]1)C(C)C	11.00	11.05	11.00		7.80	half-life [20]: 1.4 h; clearance [21]: 6.4 mL/min/kg; AUC [22]: 4.5 µM·h; bioavailability [23]: 26%
COC(=O)N[C@H](C(=O)N1CCC[C@H]1c1ncc(-c2ccc3c(c2)Oc2ccc(-c4cnc([C@@H]5CCCN5C(=O)[C@@H](NC(=O)OC)C(C)C)[nH]4)cc2S3)[nH]1)C(C)C	10.40	11.70	10.22	9.52	7.68	half-life [20]: 1.3 h; clearance [21]: 15 mL/min/kg; AUC [22]: 1.1 µM·h; bioavailability [23]: 25%
CCC1c2ccc(-c3cnc([C@@H]4CCCN4C(=O)[C@@H](NC(=O)OC)C(C)C)[nH]3)cc2Oc2ccc(-c3cnc([C@@H]4CCCN4C(=O)[C@@H](NC(=O)OC)C(C)C)[nH]3)cc21 (stereo partly drawn)	10.70	11.40	11.30	10.15	7.62	
COC(=O)N[C@H](C(=O)N1CCC[C@H]1c1ncc(-c2ccc3c(c2)C(=O)c2ccc(-c4cnc([C@@H]5CCCN5C(=O)[C@@H](NC(=O)OC)C(C)C)[nH]4)cc2C3=O)[nH]1)C(C)C	10.05	11.15	9.15		7.46	
COC(=O)N[C@H](C(=O)N1CCC[C@H]1c1ncc(-c2ccc3c(c2)NC(=O)c2ccc(-c4cnc([C@@H]5CCCN5C(=O)[C@@H](NC(=O)OC)C(C)C)[nH]4)cc2O3)[nH]1)C(C)C						pEC50 (Hepatitis C virus [6]): 6.84; pEC50 (Hepatitis C virus [7]): 9.70; pEC50 (Hepatitis C virus [8]): 6.51
COC(=O)N[C@H](C(=O)N1CCC[C@H]1c1ncc(-c2ccc3c(c2)Oc2ccc(-c4cnc([C@@H]5CCCN5C(=O)[C@@H](NC(=O)OC)C(C)C)[nH]4)cc2C3C)[nH]1)C(C)C (stereo partly drawn)	10.30	11.05	11.40	10.10		
COC(=O)N[C@H](C(=O)N1CCC[C@H]1c1ncc(-c2ccc3c(c2)Oc2ccc(-c4cnc([C@@H]5CCCN5C(=O)[C@@H](NC(=O)OC)C(C)C)[nH]4)cc2C3(C)C)[nH]1)C(C)C	10.70	11.30	> 10.70	9.52	6.89	half-life [16]: 1.6 h; clearance [17]: 19 mL/min/kg; AUC [18]: 2.3 µM·h; bioavailability [19]: 39%
COC(=O)N[C@H](C(=O)N1CCC[C@H]1c1ncc(-c2ccc3c(c2)C=Nc2ccc(-c4cnc([C@@H]5CCCN5C(=O)[C@@H](NC(=O)OC)C(C)C)[nH]4)cc2O3)[nH]1)C(C)C						pEC50 (Hepatitis C virus [6]): 6.66; pEC50 (Hepatitis C virus [7]): 10.22; pEC50 (Hepatitis C virus [8]): 7.26
